Patent EP1263420B1 (priority 2000, dated 2001)
“Also recorded” adds a separate entry of the source.

Columns and labels:
Format in all cases: in vivo
RAR γ = test: Western blot of rat lung tissue after inhaled 13-cis RA; details: for upregulating expression of lung tissue RAR (γ): daily deposited dose of 6.4mg/kg/day
Experimental: (§1) Rats (n=97) (Sprague-Dawley from Charles River) were divided into five experimental groups and were given varying amounts of 13-cis RA by inhalation. The experimental groups were as follows (Table 4) :1.Vehicle (10/9 mix of PEG 300 and Ethanol with 0.5% of ascorbic acid and 0.5% phosphatidyl choline) control, day 1: rats (19) inhaled vehicle for 2 hr for one day; 2. High dose 13-cis RA, day 1: rats (22) inhaled a solution containing 13-cis-RA at a concentration of 104µg/liter (projected daily inhaled dose 10mg/kg body weight) for 2 hr for one day; 3. High dose 13-cis RA, day 17: rats (22) inhaled the same solution as in 2 for 2 hr each day for 17 days; 4. Vehicle control, day 28: rats (16) inhaled vehicle as for group 1 for a period of 28 days; 5. Middle dose 13-cis RA, day 28: rats (18) inhaled a solution containing 13-cis-RA at a concentration of 31µg/liter (projected daily inhaled dose 3mg/kg body weight) for 2 hr for each of 28 days.
(§2) Male rats (n=23) (Sprague-Dawley from Charles River) were divided into six experimental groups and were given varying amounts of 13-cis RA through an inhalant apparatus once daily for different times each day for 14 days. The experimental groups were as follows (Table 1) :1.Vehicle control : rats (3) inhaled vehicle for 240 minutes; 2. Low dose 13-cis RA: rats (4) inhaled a solution containing 13-cis RA at a concentration of 62.2µg/liter (inhaled dose 115.0µg/kg body weight) in 5 minutes; 3. Low-Middle dose 13-cis RA : rats (4) inhaled a solution containing 13-cis RA at a concentration of 62.2µg/liter (inhaled dose 334.4µg/kg body weight) in 15 minutes; 4.Middle dose 13-cis RA: rats (4) inhaled a solution containing 13-cis RA at a concentration of 62.2µg/liter (inhaled dose 1012.3µg/kg body weight) in 45 minutes; 5. Middle-High dose 13-cis RA : rats (4) inhaled a solution containing 13-cis RA at a concentration of 62.2µg/liter (inhaled dose 2843.4µg/kg body weight) in 120 minutes; 6. High dose 13-cis RA : rats (4) inhaled a solution containing 13-cis RA at a concentration of 62.2µg/liter (inhaled dose 5935.6µg/kg body weight) in 240 minutes.
(§3) Polyclonal rabbit anti-mouse antibodies against RAR, and (SANTA CRUZ Biotechnology Inc., San Francisco, CA) were used. BM Chemiluminescense Western Blotting Kit (Mouse/Rabbit) was used (Boehringer Mannheim Corporation, Indianapolis) for the Westerns.
(§4) Tissues were collected, frozen in dry ice and kept at -70°C until used. 500mg aliquots were diced in small pieces and homogenized in 300µl of cold PBS, using the hand held homogenizer for 2~3 minutes. Sample and washes were centrifuged at 5000xg for 20 minutes. The pellet was suspended in 400 µl of ice-cold Buffer A [2µl 0.5M EDTA, 10µl 100mM EGTA, 50µl 100mM PMSF, 10µl 1M DTT, 10ml (10mM HEPES pH 7.9 + 10mM KCl)], and left at ice temperature for 15 minutes. 25 µl of 10% solution of NP-40 was added and samples were mixed in a vortex vigorously for 10 seconds. Samples were centrifuged at 14,000xg for 1 minute at 4°C and the pellet treated once more in this fashion (resuspended etc.). The supernatant was removed and 100µl of ice-cold Buffer C [4µl 0.5M EDTA, 20µl 100mM EGTA, 20µl 100mM PMSF, 2µl 1 M DTT, 2ml (20mM HEPES pH 7.9 + 0.4M NaCl)] was added. Pellets were resuspended by tapping gently on the bottom of the Eppendorf tubes. Samples were rocked vigorously in a bucket of ice on an orbital shaker for 30 minutes. Samples were centrifuged at 14,000 xg for 5 minutes at 4°C. Protein determination of supernatant was conducted by the Bradford method.
(§5) Samples were prepared by adding one part of the Sample Buffer to one part of the sample and mixing well. Samples were heated at 95°C for 5 minutes to induce denaturation. 5µl of Rainbow Standard and 5µl ofBiotinylated Molecular Marker were added to parallel wells. 20µg protein per sample was loaded in each lane. Electrophoresis was performed with voltage set at 125V for about 1 ~ 1.5 hours. Gel transfer was executed at 25V for 2 hours. […]

RAR β = test: as above; details: for upregulating expression of lung tissue RAR (β): daily deposited dose of 6.4mg/kg/day
Experimental: as §1, §2, §3, §4, §5

RAR α = test: as above; details: for upregulating expression of lung tissue RAR (α): daily deposited dose of 6.4mg/kg/day
Experimental: as §1, §2, §3, §4, §5

liver RARs = test: Western blot of rat liver samples after inhaled 13-cis RA
Experimental: as §1
as §2, with “minutes. […]” for “minutes.”

[1] = daily deposited dose of 1.9mg/kg/day, day 28

With CC1=C(/C=C/C(C)=C/C=C/C(C)=C\C(=O)O)C(C)(C)CCC1 [13-cis RA, 13-cis-Retinoic Acid] the “lung RAR (γ) induced” value (RAR γ; [1]) was 8.1 fold, the “upregulating expression of lung tissue RAR (γ)” value (RAR γ; day 1) was 9.7 fold and the “upregulating expression of lung tissue RAR (γ)” value (RAR γ; day 17) was 12.9 fold. The “lung RAR (β) induced” value (RAR β; [1]) was 8.0 fold, the “upregulating expression of lung tissue RAR (β)” value (RAR β; day 1) was 7.2 fold and the “upregulating expression of lung tissue RAR (β)” value (RAR β; day 17) was 10.0 fold. For the same compound, the “lung RAR (α) induced” value (RAR α; [1]) was 4.7 fold, the “upregulating expression of lung tissue RAR (α)” value (RAR α; day 1) was 3.4 fold and the “upregulating expression of lung tissue RAR (α)” value (RAR α; day 17) was 4.2 fold. The “effect on liver RARs” value (liver RARs; inhaled 13-cis RA, rats, summary statement) was “failed to have any significant effect on liver RARs; also recorded: has no effect on liver RARs”, the “increase in liver RARs” value (liver RARs; rat liver, experiment A (same rats as Fig 2A), not shown) was “failed to show any increase in RARs” and the “response of liver RARs” value (liver RARs; rat liver, experiment B, 5 to 240 minutes daily, 14 days, not shown) was “not responsive”.
